Consider 44 compounds from patent publication US10774053B2, “HIV protease inhibitors” (Gilead Sciences, Inc., priority 2017, dated 2020).

What is called EC50 is the midpoint of the concentration-response curve.

The assay concerns HIV-1 (IIIB) in MT-4 cells. Description: microbe, parasite or virus in culture. The class given is cell-based. The following applies: Human immunodeficiency virus 1, IIIB, MT4, MT-4 cells, HIV-1; read-out: MT4 EC50. As to the method:
Compounds were serially diluted (1:3) in DMSO on 384-well polypropylene plates and further diluted 200-fold into complete RPMI media (10% FBS, 1% P/S) using the Biotek Micro Flow and Agilent ECHO acoustic dispenser. Each plate contained up to 8 test compounds, with negative (No Drug Control) and 5 uM AZT positive controls. MT-4 cells were pre-infected with 10 uL of either RPMI (mock-infected) or a fresh 1:250 dilution of an HIV-1 (IIIB) concentrated virus stock. Infected and uninfected MT-4 cells were further diluted in complete RPMI media and added to each plate using a Micro Flow dispenser. After 5 days incubation in a humidified and temperature controlled incubator (37° C.), Cell Titer Glo (Promega) was added to the assay plates to quantify the amount of luciferase.

`CC(C)(C)C[C@]1(c2ccc(-c3cnsc3)cc2)NC(=N)N([C@H](COC(=O)NC2(C(F)(F)F)CC2)c2ccc(Cl)c(-c3ncnn3C(F)F)c2)C1=O` [Compound 119]: the EC50 amounted to 10.3 nM.
Then `CC(C)(C)C[C@]1(c2ccc(-c3cnn(S(C)(=O)=O)c3)c(F)c2)NC(=N)N([C@H](COC(=O)NCC(F)(F)F)c2ccc(Cl)c(-n3ncnc3C(F)F)c2)C1=O` [Compound 300], with 12.5 nM; and `CC(C)(C)C[C@]1(c2ccc(-c3cnn(S(C)(=O)=O)c3)cc2)NC(=N)N([C@H](COC(=O)NC2(C(F)(F)F)CC2)c2ccc(Cl)c(-n3ncnc3C(F)F)c2)C1=O` [Compound 292], with 14.2 nM; and `CC(C)(C)C[C@]1(c2ccc(-c3nnn(C4CC4)n3)cc2)NC(=N)N([C@H](COC(=O)NC2(C(F)(F)F)CC2)c2ccc(Cl)c(-n3ncnc3C(F)F)c2)C1=O` [Compound 356], with 19.5 nM.
Then `CC(C)(F)C[C@]1(c2ccc(-c3cnn(C(F)F)c3)cc2)NC(=N)N([C@H](COC(=O)N2CC(F)(F)C2)c2ccc(Cl)c(-c3ncn[nH]3)c2)C1=O` [Compound 101], with 65.9 nM; and `CC(C)(C)C[C@]1(c2ccc(-c3cnn(C4CC4)c3)cc2)NC(=N)N([C@H](COC(=O)NC(C)(C)C(F)F)c2ccc(Cl)c(-c3ncn[nH]3)c2)C1=O` [Compound 79], with 64.5 nM; and `CC(C)(C)C[C@]1(c2ccc(-c3ncccn3)cc2)NC(=N)N([C@H](COC(=O)NC(C)(C)C(F)F)c2ccc(Cl)c(-c3ncnn3C(F)F)c2)C1=O` [Compound 125], with 12 nM.
Take `CC(C)(C)C[C@]1(c2cc(F)cc(F)c2)NC(=N)N([C@H](COC(=O)NC2(C)CC2)c2ccc(Cl)c(-n3cccn3)c2)C1=O` [Compound 257]: the half-maximal effective concentration (EC50) was 4180 nM.
`CC(C)(C)C[C@]1(c2ccc(-c3cnn(C(F)F)c3)cc2)NC(=N)N([C@H](COC(=O)NC2(C(F)(F)F)CC2)c2ccc(Cl)c(-n3nccn3)c2)C1=O` [Compound 268]: the EC50 stood at 37.8 nM.
Turning to `CC(C)(C)C[C@]1(c2ccc(-c3cnn(C(F)F)c3)cc2)NC(=N)N([C@H](COC(=O)N[C@@H]2C[C@H]2F)c2ccc(Cl)c(-n3ncnc3C(F)F)c2)C1=O` [Compound 337], the EC50 was determined as 9.75 nM.
Then `CC(C)(C)C[C@]1(c2ccc(-c3cnn(C(F)F)c3)cc2)NC(=N)N([C@H](COC(=O)NC2CC2)c2ccc(Cl)c(-c3cn(C(F)F)cn3)c2)C1=O` [Compound 36], with 89.3 nM.
The result for `CN(C)C(=O)OC[C@H](c1ccc(Cl)c(-c2ncc(-c3ccccc3)o2)c1)N1C(=N)N[C@@](c2cc(F)cc(F)c2)(C2CC2)C1=O` [Compound 4] reads 3620 nM; that for `Cc1cc(-c2ccc([C@@]3(CC(C)(C)C)NC(=N)N([C@H](COC(=O)NC4(C(F)(F)F)CC4)c4ccc(Cl)c(-n5ncnc5C(F)F)c4)C3=O)cc2)on1` [Compound 216], 9.74 nM.
The result for `CC(C)(C)C[C@]1(c2ccc(-c3cnn(C(F)F)c3)cc2)NC(=N)N([C@H](COC(=O)N2CC3(CCO3)C2)c2ccc(Cl)c(-c3ncn[nH]3)c2)C1=O` [Compound 92] reads 113 nM.
For `CC(C)(C)C[C@]1(c2ccc(-c3cnn(C(F)F)c3)cc2)NC(=N)N([C@H](COC(=O)NC23CC(C(F)(F)F)(C2)C3)c2ccc(Cl)c(-n3cncn3)c2)C1=O` [Compound 248], the EC50 worked out at 70.3 nM.
Then `CC(C)(C)C[C@]1(c2ccc(-c3cnn(C4CC4)c3)cc2)NC(=N)N([C@H](COC(=O)NC2(C(F)(F)F)CC2)c2ccc(Cl)c(-n3cncn3)c2)C1=O` [Compound 319], with 17.8 nM; and `Cn1ncnc1-c1cc([C@@H](COC(=O)NC2CC2)N2C(=N)N[C@](CC(C)(C)C)(c3ccc(-c4cnn(C(F)F)c4)cc3)C2=O)ccc1Cl` [Compound 18], with 9.56 nM.
On to `CC(C)(C)C[C@]1(c2ccc(-c3cnn(C4CC4)c3)cc2)NC(=N)N([C@H](COC(=O)N2CC(F)(F)C2)c2ccc(Cl)c(-c3ncn[nH]3)c2)C1=O` [Compound 77], for which the EC50 is 38.9 nM.
For `CCC1(NC(=O)OC[C@H](c2ccc(Cl)c(-n3cccn3)c2)N2C(=N)N[C@](CC(C)(C)C)(c3ccc(-c4cnn(C(F)F)c4)cc3)C2=O)CC1` [Compound 259], the EC50 amounted to 65.4 nM.
The result for `Cn1cc(-c2cc([C@@H](COC(=O)NC3CC3)N3C(=N)N[C@](CC(C)(C)C)(c4ccc(-c5cnn(C(F)F)c5)cc4)C3=O)ccc2Cl)nn1` [Compound 41] reads 18.1 nM.
Then `[H]/N=C1\N[C@](CC(C)(C)C)(c2ccc(-c3cnn(C(F)F)c3)cc2)C(=O)N1[C@H](COC(=O)NC1CC1)c1ccc(Cl)c(-c2ncns2)c1` [Compound 48], with 80 nM.
The result for `[H]/N=C1\N[C@](CC(C)(C)C)(c2ccc(-c3cnn(C(F)F)c3)cc2)C(=O)N1[C@H](COC(=O)NC1CC1)c1ccc(Cl)c(-c2c[nH]cn2)c1` [Compound 30] reads 120 nM; that for `[H]/N=C1\N[C@](CC(C)(C)C)(c2ccc(-c3cnn(C4CC4)c3)cc2)C(=O)N1[C@H](COC(=O)N1CC(F)(F)C1)c1ccc(Cl)c(-c2ccccn2)c1` [Compound 49], 68.1 nM.
Turning to `CC(C)(C)C[C@]1(c2ccc(-c3cn(C4(C(F)(F)F)CC4)nn3)cc2)NC(=N)N([C@H](COC(=O)NC2(C(F)(F)F)CC2)c2ccc(Cl)c(-n3ncnc3C(F)F)c2)C1=O` [Compound 364], the EC50 came out at 21.6 nM.
The result for `CC(C)(C)C[C@]1(c2ccc(-c3cnn(C4CC4)c3)cc2)NC(=N)N([C@H](COC(=O)NC2CC2)c2ccc(Cl)c(-n3cncn3)c2)C1=O` [Compound 243] reads 9.11 nM; that for `CC(C)(C)C[C@]1(c2ccc(-c3cnc4ccccn34)cc2)NC(=N)N([C@H](COC(=O)NC2(C(F)(F)F)CC2)c2ccc(Cl)c(-c3ncnn3C(F)F)c2)C1=O` [Compound 121], 21 nM; that for `CC(C)(C)C[C@]1(c2ccc(-c3cnn(C4CC4)n3)cc2)NC(=N)N([C@H](CNC(=O)C2CC2)c2ccc(Cl)c(-n3ncnc3C(F)F)c2)C1=O` [Compound 381], 24.8 nM.
The result for `CC(C)(C)C[C@]1(c2ccc(-c3cnn(C(F)F)c3)cc2)NC(=N)N([C@H](COC(=O)NC2(C)CC2)c2ccc(Cl)c(-n3ncnc3C(F)F)c2)C1=O` [Compound 178] reads 9.99 nM; that for `CC(C)(C)C[C@]1(c2ccc(-c3ncccn3)cc2)NC(=N)N([C@H](CO)c2ccc(Cl)c(-n3cncn3)c2)C1=O` [Compound 245], 239 nM; that for `CC(C)(C)C[C@]1(c2ccc(-c3cnn(C(F)F)c3)cc2)NC(=N)N([C@H](COC(=O)N2CC3(CC3)C2)c2ccc(Cl)c(-c3ncn[nH]3)c2)C1=O` [Compound 87], 38.5 nM.
Then `CC(C)(C)C[C@]1(c2ccc(-c3cnn(C(F)F)c3)cc2)NC(=N)N([C@H](COC(=O)NC2(C(F)(F)F)CC2)c2ccc(Cl)c(-n3cccn3)c2)C1=O` [Compound 255], with 22.7 nM; and `CC(C)(C)C[C@]1(c2ccc(-c3cnn(C(F)F)c3)cc2)NC(=N)N([C@H](COC(=O)NC2(C)CC2)c2ccc(Cl)c(-n3cccn3)c2)C1=O` [Compound 258], with 28.5 nM.
In the case of `CC(C)(C)C[C@]1(c2ccc(-c3cccc(=O)[nH]3)cc2)NC(=N)N([C@H](COC(=O)NC2(C(F)(F)F)CC2)c2ccc(Cl)c(-n3cncn3)c2)C1=O` [Compound 249], the EC50 came out at 325 nM.
As for `Cc1ncsc1-c1ccc([C@@]2(CC(C)(C)C)NC(=N)N([C@H](COC(=O)NC3(C(F)(F)F)CC3)c3ccc(Cl)c(-n4ncnc4C(F)F)c3)C2=O)c(F)c1` [Compound 200], the EC50 was determined as 26.2 nM.
Then `C[C@@H](C(=O)NC[C@H](c1ccc(Cl)c(-n2ncnc2C(F)F)c1)N1C(=N)N[C@](CC(C)(C)C)(c2ccc(-c3cnn(C4CC4)n3)cc2)C1=O)C(F)(F)F` [Compound 386], with 23.4 nM; and `CC(C)(C)C[C@]1(c2ccc(-c3cnc(C(F)(F)F)nc3)cc2)NC(=N)N([C@H](COC(=O)NC2(C(F)(F)F)CC2)c2ccc(Cl)c(-c3ncnn3C(F)F)c2)C1=O` [Compound 122], with 25.4 nM.
Then `CC(C)(C)C[C@]1(c2ccc(-c3cnn(C(F)F)c3)cc2)NC(=N)N([C@H](COC(=O)NC2(C)CC2)c2ccc(Cl)c(-n3cc(C#N)cn3)c2)C1=O` [Compound 265], with 17.9 nM.
The result for `CC(C)(C)C[C@]1(c2ccc(C#N)cc2)NC(=N)N([C@H](COC(=O)NC2(C(F)(F)F)CC2)c2ccc(Cl)c(-n3ncnc3C(F)F)c2)C1=O` [Compound 280] reads 20.7 nM; that for `CC(C)(C)C[C@]1(c2ccc(-c3cnn(C(F)F)c3)cc2)NC(=N)N([C@H](COC(=O)N2CC(C)(C#N)C2)c2ccc(Cl)c(-c3ncn[nH]3)c2)C1=O` [Compound 85], 112 nM; that for `CC(C)(C)C[C@]1(c2ccc(-c3cnn(C(F)F)c3)cc2)NC(=N)N([C@H](COC(=O)NC(C)(CO)CO)c2ccc(Cl)c(-c3ncn[nH]3)c2)C1=O` [Compound 102], 196 nM.
For `CC(C)(C)C[C@]1(c2ccc(-c3cnn(C(F)F)c3)cc2)NC(=N)N([C@H](COC(=O)NC2(C)CC2)c2ccc(OC(F)(F)F)c(-n3cncn3)c2)C1=O` [Compound 251], the EC50 came to 85.7 nM.
Then `Cn1ncnc1-c1cc([C@@H](COC(=O)NC(C)(C)C(F)F)N2C(=N)N[C@](CC(C)(C)F)(c3ccc(-c4cnn(C(F)F)c4)cc3)C2=O)ccc1Cl` [Compound 128], with 85 nM; and `CC(C)(C)C[C@]1(c2ccc(-c3ccc(S(C)(=O)=O)cc3)c(F)c2)NC(=N)N([C@H](COC(=O)NC2(C(F)(F)F)CC2)c2ccc(Cl)c(-n3ncnc3C(F)F)c2)C1=O` [Compound 313], with 19.5 nM; and `CC(C)(C)C[C@]1(c2ccc(-c3ccccn3)cc2F)NC(=N)N([C@H](COC(=O)NC2(C(F)(F)F)CC2)c2ccc(Cl)c(-n3ncnc3C(F)F)c2)C1=O` [Compound 196], with 12.7 nM.
